One data set has as its system HeLa cells. As to the kind of experiment: cell imaging, colocalization with red mitochondrial marker Mito Tracker Red CMXRos. The conditions noted are these: dye 1 μM, vs Mito Tracker Red CMXRos (100 nm); for colocalization coefficient: blue and red channel. In kind it is cell-based. How it is done: (§1) Dye 1a was formulated into a mother liquor in DMSO (dimethyl sulfoxide), and then added to a conventional cell culture medium to give a concentration of dye 1a in the cell culture medium of 1 μM. L929 cells and HeLa cells were respectively co-cultured for 10 min in an incubator at saturated humidity, 37° C., and 5% CO2 (the experiment was same below). The existing red mitochondrial marker Mito Tracker® Red CMXRos (100 nm) was added, and the cells were co-incubated for another 10 min, washed three times with a PBS buffer, and imaged under a laser confocal microscope. In the blue channel, light of 405 nm was used for excitation, and a fluorescence signal in the range of 410-500 nm was collected; and in the red channel, light of 561 nm was used for excitation, and a fluorescence signal in the range of 570-750 nm was collected. […] The results are shown in FIG. 14, where (a) and (g) are the bright-field images; (b) and (h) are the cell images with dye 1a; (c) and (i) are the cell images with the red mitochondrial marker; (d) and (j) are overlapped images with blue channel and red channel, (e) and (k) show the fluorescence intensity of the ROI line in the overlapped images; and (f) and (1) show colocalization assays, with a colocalization coefficient of 0.90 (L929) and 0.84 (HeLa) respectively.
(§2) The experiment method with dye 1b, dye 1c, dye 2a, dye 2b, and dye 2c (1 μM) is the same as that with dye 1a above, except that dye 1a is replaced. In FIG. 15, (a) and (g) are the bright-field images; (b) and (h) are the cell images with dye 1b; (c) and (i) are the cell images with the red mitochondrial marker; (d) and (j) are overlapped images with blue channel and red channel, (e) and (k) show the fluorescence intensity of the ROI line in the overlapped images; and (f) and (1) show colocalization assays, with a colocalization coefficient of 0.81 (L929) and 0.83 (HeLa) respectively. In FIG. 16, (a) and (g) are the bright-field images; (b) and (h) are the cell images with dye 1c; (c) and (i) are the cell images with the red mitochondrial marker; (d) and (j) are overlapped images with blue channel and red channel, (e) and (k) show the fluorescence intensity of the ROI line in the overlapped images; and (f) and (1) show a colocalization assay, both having a colocalization coefficient of 0.77. In FIG. 17, (a) and (g) are the bright-field images; (b) and (h) are the cell images with dye 2a; (c) and (i) are the cell images with the red mitochondrial marker; (d) and (j) are overlapped images with blue channel and red channel, (e) and (k) show the fluorescence intensity of the ROI line in the overlapped images; and (f) and (1) show colocalization assays, with a colocalization coefficient of 0.79 (L929) and 0.80 (HeLa) respectively. In FIG. 18, (a) and (g) are the bright-field images; (b) and (h) are the cell images with dye 2b; (c) and (i) are the cell images with the red mitochondrial marker; (d) and (j) are overlapped images with blue channel and red channel, (e) and (k) show the fluorescence intensity of the ROI line in the overlapped images; and (f) and (1) show colocalization assays, with a colocalization coefficient of 0.85 (L929) and 0.79 (HeLa) respectively. In FIG. 19, (a) and (g) are the bright-field images; (b) and (h) are the cell images with dye 2c; (c) and (i) are the cell images with the red mitochondrial marker; (d) and (j) are overlapped images with blue channel and red channel, (e) and (k) show the fluorescence intensity of the ROI line in the overlapped images; and (f) and (1) show colocalization assays, with a colocalization coefficient of 0.82 (L929) and 0.84 (HeLa) respectively.
Dye 4 was formulated into a mother liquor in DMSO, and then added to a conventional cell culture medium to give a concentration of dye 4 in the cell culture medium of 1 μM. HeLa cells were co-cultured for 10 min in an incubator at saturated humidity, 37° C., and 5% CO2. […]

Data set [1] in a line: ultraviolet absorption and fluorescence emission in chloroform. In kind it is physicochemical. The conditions noted are these: 10 μM; for maximum emission wavelength (fluorescence spectrum): excitation wavelength and slit width per dye. As to the method:
The ultraviolet absorption and fluorescence emission of the dyes prepared in the examples and comparative examples (at a concentration of 10 μM) in chloroform were tested. The horizontal ordinate is the wavelength, and the vertical ordinate is the absorbance and fluorescence intensity, respectively.
In the ultraviolet-visible absorption spectrum, dye 1a has the maximum absorption at 378 nm; and in the fluorescence spectrum, dye 1a has the highest fluorescence intensity at 452 nm, where the excitation wavelength is 370 nm, and the slit width is 3 nm/1.5 nm. In the ultraviolet-visible absorption spectrum, dye 1b has a maximum absorption wavelength of 382 nm; and in the fluorescence spectrum, dye 1b has a maximum emission wavelength of 485 nm, where the excitation wavelength is 374 nm, and the slit width is 3 nm/1.5 nm. In the ultraviolet-visible absorption spectrum, dye 1c has a maximum absorption wavelength of 385 nm; and in the fluorescence spectrum, dye 1c has a maximum emission wavelength of 454 nm, where the excitation wavelength is 380 nm, and the slit width is 3 nm/1.5 nm. In the ultraviolet-visible absorption spectrum, dye 2a has the maximum absorption at 364 nm; and in the fluorescence spectrum, dye 2a has the highest fluorescence intensity at 480 nm, where the excitation wavelength is 374 nm, and the slit width is 3 nm/1.5 nm. In the ultraviolet-visible absorption spectrum, dye 2b has a maximum absorption wavelength of 360 nm; and in the fluorescence spectrum, dye 2b has a maximum emission wavelength of 458 nm, where the excitation wavelength is 370 nm, and the slit width is 3 nm/1.5 nm. In the ultraviolet-visible absorption spectrum, dye 2c has a maximum absorption wavelength of 356 nm; and in the fluorescence spectrum, dye 2c has a maximum emission wavelength of 441 nm, where the excitation wavelength is 360 nm, and the slit width is 3 nm/3 nm. In the ultraviolet-visible absorption spectrum, dye 3a has the maximum absorption at 548 nm; and in the fluorescence spectrum, dye 3a has the highest fluorescence intensity at 606 nm, where the excitation wavelength is 560 nm, and the slit width is 1.5 nm/1.5 nm. In the ultraviolet-visible absorption spectrum, dye 3b has a maximum absorption wavelength of 549 nm; and in the fluorescence spectrum, dye 3b has a maximum emission wavelength of 608 nm, where the excitation wavelength is 540 nm, and the slit width is 1.5 nm/1.5 nm. In the ultraviolet-visible absorption spectrum, dye 3c has a maximum absorption wavelength of 554 nm; and in the fluorescence spectrum, dye 3c has a maximum emission wavelength of 611 nm, where the excitation wavelength is 540 nm, and the slit width is 1.5 nm/1.5 nm. In the ultraviolet-visible absorption spectrum, dye 3d has a maximum absorption wavelength of 556 nm; and in the fluorescence spectrum, dye 3d has a maximum emission wavelength of 619 nm, where the excitation wavelength is 570 nm, and the slit width is 1.5 nm/1.5 nm. In the ultraviolet-visible absorption spectrum, dye 4 has a maximum absorption wavelength of 501 nm; and in the fluorescence spectrum, dye 4 has a maximum emission wavelength of 515 nm, where the excitation wavelength is 495 nm, and the slit width is 1.5 nm/1.5 nm. The above UV absorption and fluorescence emission test methods are conventional methods.

In another data set the test system is L929 cells. Briefly: cell imaging, colocalization with red mitochondrial marker Mito Tracker Red CMXRos. It counts as cell-based. The conditions noted are these: dye 1 μM; for mitochondria labeling ability (blue mitochondrial marker): L929 (normal) and HeLa (cancer) cells, vs Mito Tracker Red CMXRos; for colocalization coefficient: L929 cells, vs Mito Tracker Red CMXRos (100 nm), blue and red channel. How it is done: as §1, §2

Compound `CCN(CC)c1ccc2c(C)c(-c3cnc4[nH]ncc4c3)c(=O)oc2c1` [dye 1c] came in with a colocalization coefficient in the data set with HeLa cells of 0.77. Further, in data set [1], the “maximum absorption wavelength (ultraviolet-visible absorption spectrum)” value (from here on “maximum absorption wavelength”) is on record as 385 nm and the “maximum emission wavelength (fluorescence spectrum)” value (from here on “maximum emission wavelength”) was 454 nm. In the data set with L929 cells, the “mitochondria labeling ability (blue mitochondrial marker)” value (“mitochondria labeling ability” below) is “mitochondria labeling ability in both normal cells and cancer cells”; the colocalization coefficient came out at 0.77.

In the data set with HeLa cells, `CCCCN1C(=O)c2cccc3c(-c4cnc5[nH]ccc5c4)ccc(c23)C1=O` [dye 2b] registered a colocalization coefficient of 0.79. Further, in data set [1], the “maximum absorption wavelength” value is listed as 360 nm and the “maximum emission wavelength” value is on record as 458 nm. Moreover, in the data set on L929 cells, the “mitochondria labeling ability” value is “mitochondria labeling ability in both normal cells and cancer cells”; the colocalization coefficient is reported as 0.85.

As for `CCN(CC)c1ccc2c(C)c(-c3ccc4[nH]ncc4c3)c(=O)oc2c1` [dye 1a], the colocalization coefficient in the data set on HeLa cells is on record as 0.84. In data set [1], the “maximum absorption wavelength” value amounted to 378 nm and the “maximum emission wavelength” value is recorded as 452 nm. In addition, in the data set on L929 cells, the “mitochondria labeling ability” value was “mitochondria labeling ability in both normal cells and cancer cells”; the colocalization coefficient is given as 0.90.

In turn, `CCCCN1C(=O)c2cccc3c(-c4cnc5[nH]ncc5c4)ccc(c23)C1=O` [dye 2c] displayed a colocalization coefficient in the data set on HeLa cells of 0.84. In data set [1], the “maximum absorption wavelength” value was determined as 356 nm and the “maximum emission wavelength” value worked out at 441 nm. Further, in the data set on L929 cells, the “mitochondria labeling ability” value is “mitochondria labeling ability in both normal cells and cancer cells”; the colocalization coefficient is given as 0.82.

Regarding `CC1=CC(C)=[N+]2C1=C(c1ccc(-c3ccc4[nH]ncc4c3)cc1)c1c(C)cc(C)n1[B-]2(F)F` [dye 4], in the data set with HeLa cells (green and red channel), the “overlap with the red mitochondrial marker” value was “cannot be overlapped well with the red mitochondrial marker”. In data set [1], the “maximum absorption wavelength” value turned out to be 501 nm and the “maximum emission wavelength” value amounted to 515 nm.

In the data set with HeLa cells, `CCCCN1C(=O)c2cccc3c(-c4ccc5[nH]ncc5c4)ccc(c23)C1=O` [dye 2a] registered a colocalization coefficient of 0.80. For the same compound, in data set [1], the “maximum absorption wavelength” value is given as 364 nm and the “maximum emission wavelength” value was 480 nm. In the data set with L929 cells, the “mitochondria labeling ability” value was “mitochondria labeling ability in both normal cells and cancer cells”; the colocalization coefficient came to 0.79.

`CCN(CC)c1ccc2c(C)c(-c3cnc4[nH]ccc4c3)c(=O)oc2c1` [dye 1b] came in with a colocalization coefficient with HeLa cells of 0.83. Also, in data set [1], the “maximum absorption wavelength” value is recorded as 382 nm and the “maximum emission wavelength” value came to 485 nm. Moreover, in the data set on L929 cells, the “mitochondria labeling ability” value was “mitochondria labeling ability in both normal cells and cancer cells”; the colocalization coefficient amounted to 0.81.

For the origin of these results see patent US20220275274A1, “NEUTRAL FLUORESCENT MITOCHONDRIAL MARKER BASED ON NITROGEN-CONTAINING HETEROCYCLE, PREPARATION METHOD AND USE THEREOF” (SOOCHOW UNIVERSITY, priority 2020, published 2022).
